According to PubChem BioAssay AID248 (DTP/NCI, 2004):
Values joined by “and” are separate entries in the source; they are usually repeats but may differ in a detail not shown here. Identical values can stand only once. Inconclusive results and toxic doses are left out. Cut-off read from the data, not from the text of the source: active = T/C of 150% or more; inactive = T/C below 125%.

Test system: L1210 leukemia ip in BDF1 mice, survival T/C
Assay: NCI In Vivo Anticancer Drug Screen. Data for tumor model L1210 Leukemia (intraperitoneal) in B6D2F1 (BDF1) mice
Details: endpoint: mean survival time, higher = longer survival
Summary of the method: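 Tumor cells were implanted, animals were treated, and survival was followed. The result divides the treated measurement by the vehicle-control measurement.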

[1] = dose: 100.0 mg/kg/injection, schedule: Q01DX001 (ip), vehicle: Klucel (hydroxypropylcellulose) (HPC)
[2] = dose: 200.0 mg/kg/injection, schedule: Q01DX001 (ip), vehicle: Klucel (hydroxypropylcellulose) (HPC)
[3] = dose: 400.0 mg/kg/injection, schedule: Q01DX001 (ip), vehicle: Klucel (hydroxypropylcellulose) (HPC)
[4] = dose: 100.0 mg/kg/injection, schedule: Q01DX001 (ip), vehicle: saline with Tween-80
[5] = dose: 200.0 mg/kg/injection, schedule: Q01DX001 (ip), vehicle: saline with Tween-80
[6] = dose: 400.0 mg/kg/injection, schedule: Q01DX001 (ip), vehicle: saline with Tween-80
[7] = dose: 100.0 mg/kg/injection, schedule: Q04DX003 (ip), vehicle: saline with Tween-80
[8] = dose: 200.0 mg/kg/injection, schedule: Q04DX003 (ip), vehicle: saline with Tween-80
[9] = dose: 400.0 mg/kg/injection, schedule: Q04DX003 (ip), vehicle: saline with Tween-80
[10] = dose: 50.0 mg/kg/injection, schedule: Q01DX009 (ip), vehicle: saline
[11] = dose: 100.0 mg/kg/injection, schedule: Q01DX009 (ip), vehicle: saline
[12] = dose: 200.0 mg/kg/injection, schedule: Q01DX009 (ip), vehicle: saline
[13] = dose: 400.0 mg/kg/injection, schedule: Q01DX009 (ip), vehicle: saline
[14] = dose: 100.0 mg/kg/injection, schedule: Q04DX002 (ip), vehicle: Klucel (hydroxypropylcellulose) (HPC)
[15] = dose: 200.0 mg/kg/injection, schedule: Q04DX002 (ip), vehicle: Klucel (hydroxypropylcellulose) (HPC)
[16] = dose: 400.0 mg/kg/injection, schedule: Q04DX002 (ip), vehicle: Klucel (hydroxypropylcellulose) (HPC)
[17] = dose: 100.0 mg/kg/injection, schedule: Q04DX003 (ip), vehicle: saline
[18] = dose: 200.0 mg/kg/injection, schedule: Q04DX003 (ip), vehicle: saline
[19] = dose: 400.0 mg/kg/injection, schedule: Q04DX003 (ip), vehicle: saline
[20] = dose: 100.0 mg/kg/injection, schedule: Q04DX003 (ip), vehicle: Klucel (hydroxypropylcellulose) (HPC)
[21] = dose: 200.0 mg/kg/injection, schedule: Q04DX003 (ip), vehicle: Klucel (hydroxypropylcellulose) (HPC)
[22] = dose: 400.0 mg/kg/injection, schedule: Q04DX003 (ip), vehicle: Klucel (hydroxypropylcellulose) (HPC)
[23] = dose: 100.0 mg/kg/injection, schedule: Q01DX001 (ip), vehicle: saline
[24] = dose: 200.0 mg/kg/injection, schedule: Q01DX001 (ip), vehicle: saline
[25] = dose: 400.0 mg/kg/injection, schedule: Q01DX001 (ip), vehicle: saline

Measured: T/C

COC(OC)c1nc(N)[nH]c(=O)c1Cc1ccc([N+](=O)[O-])cc1
inactive: [1] 110 % of control | [2] 102 % of control | [3] 96 % of control

O=C(OCc1ccc2c(c1)OCO2)C1CC1
inactive: dose: 100.0 mg/kg/injection, schedule: Q04DX002 (ip), vehicle: saline with Tween-80 103 % of control | dose: 400.0 mg/kg/injection, schedule: Q04DX002 (ip), vehicle: saline with Tween-80 101 % of control

O=C(CS(=O)(=O)O)Nc1ccccc1 (tested in a mixture with another compound)
inactive: [4] 93 % of control | [5] 103 % of control | [6] 90 % of control

CC1(C)N=C(N)N=C(N)N1c1cccc(OCc2cccc(N)c2)c1
inactive: dose: 5.0 mg/kg/injection, schedule: Q01DX001 (ip), vehicle: saline 98 % of control | dose: 10.0 mg/kg/injection, schedule: Q01DX001 (ip), vehicle: saline 101 % of control | dose: 20.0 mg/kg/injection, schedule: Q01DX001 (ip), vehicle: saline 96 % of control | dose: 40.0 mg/kg/injection, schedule: Q01DX001 (ip), vehicle: saline 93 % of control | dose: 80.0 mg/kg/injection, schedule: Q01DX001 (ip), vehicle: saline 113 % of control

CC(=O)NC1C(OC(C)=O)OC2COCOC2C1OC(C)=O (centres undefined)
inactive: [4] 97 % of control | [5] 97 % of control | [6] 105 % of control

N#C/C(=C1C=C/C(=N/O)C(Br)=C/1)c1ccccc1
inactive: [7] 96 % of control | [8] 100 % of control | [9] 98 % of control

CCOC(=O)C(O)C1(Cl)CCC(C(C)(C)C)CC1 (centres undefined)
inactive: dose: 100.0 mg/kg/injection, schedule: Q04DX002 (ip), vehicle: saline 103 % of control | dose: 200.0 mg/kg/injection, schedule: Q04DX002 (ip), vehicle: saline 106 % of control | dose: 400.0 mg/kg/injection, schedule: Q04DX002 (ip), vehicle: saline 106 % of control

O=C(Nc1ccc(F)cc1)Oc1ccc([N+](=O)[O-])cc1
inactive: dose: 25.0 mg/kg/injection, schedule: Q01DX009 (ip), vehicle: saline 106 % of control | [10] 100 % of control | [11] 97 % of control and 106 % of control | [12] 95 % of control | [13] 97 % of control

Cc1ccc(S(=O)(=O)OC(C(F)(F)F)C(F)(F)F)cc1
inactive: [14] 97 % of control | [15] 90 % of control | [16] 101 % of control

c1ccc(-n2ncc3ccccc32)cc1
inactive: dose: 50.0 mg/kg/injection, schedule: Q01DX001 (ip), vehicle: saline with Tween-80 100 % of control | [4] 100 % of control | [5] 96 % of control

O=[N+]([O-])c1ccccc1N=Nc1c(O)[nH]c2ccc(F)cc12
inactive: dose: 75.0 mg/kg/injection, schedule: Q01DX001 (ip), vehicle: acetone 96 % of control | dose: 150.0 mg/kg/injection, schedule: Q01DX001 (ip), vehicle: acetone 96 % of control | dose: 300.0 mg/kg/injection, schedule: Q01DX001 (ip), vehicle: acetone 103 % of control

O=[N+]([O-])c1ccc(-c2ncc3cnccn23)cc1
inactive: [11] 90 % of control | [17] 100 % of control | [12] 90 % of control | [18] 93 % of control | [13] 91 % of control | [19] 95 % of control

Clc1nc(Cl)c(Cl)nc1Cl
inactive: dose: 25.0 mg/kg/injection, schedule: Q01DX009 (ip), vehicle: saline with Tween-80 102 % of control | dose: 50.0 mg/kg/injection, schedule: Q01DX009 (ip), vehicle: saline with Tween-80 100 % of control | dose: 100.0 mg/kg/injection, schedule: Q01DX009 (ip), vehicle: saline with Tween-80 100 % of control | dose: 200.0 mg/kg/injection, schedule: Q01DX009 (ip), vehicle: saline with Tween-80 110 % of control | dose: 400.0 mg/kg/injection, schedule: Q01DX009 (ip), vehicle: saline with Tween-80 96 % of control

Cc1nc(Br)c([N+](=O)[O-])[nH]1
inactive: [4] 95 % of control | [5] 114 % of control | [6] 97 % of control

CO[N+](=O)c1cc(C(C)(C)C)c([O-])c(C(C)(C)C)c1
inactive: [1] 88 % of control | [2] 88 % of control | [3] 92 % of control

COc1ccc(C(=O)c2ccccc2)c(O)c1
inactive: [20] 101 % of control | [21] 97 % of control | [22] 90 % of control

CC(C)CCOC(=O)C(O)C(C)(Cl)c1ccccc1 (centres undefined)
inactive: [14] 111 % of control | [15] 91 % of control | [16] 100 % of control

C[C@]12CCC(=O)C=C1CC[C@@H]1[C@@H]2[C@@H](O)C[C@@]2(C)[C@H]1CC[C@]2(O)C(=O)COC(=O)COCC(=O)O
inactive: dose: 100.0 mg/kg/injection, schedule: Q04DX003 (sc), vehicle: Klucel (hydroxypropylcellulose) (HPC) 101 % of control | dose: 200.0 mg/kg/injection, schedule: Q04DX003 (sc), vehicle: Klucel (hydroxypropylcellulose) (HPC) 102 % of control | dose: 400.0 mg/kg/injection, schedule: Q04DX003 (sc), vehicle: Klucel (hydroxypropylcellulose) (HPC) 101 % of control

CCNC(=O)NC1C(O)OC(CO)C(O)C1O (centres undefined)
inactive: [23] 96 % of control | [17] 99 % of control | [24] 103 % of control | [18] 99 % of control | [25] 102 % of control | [19] 95 % of control

Nc1nc(=S)ss1
inactive: [20] 108 % of control | [21] 105 % of control | [22] 97 % of control

CCCCCCCCCCCCCCCCCC/C(CC)=N/Nc1ccc([N+](=O)[O-])cc1[N+](=O)[O-]
inactive: [1] 101 % of control | [2] 103 % of control | [3] 97 % of control

CC(CCC(CCCCC(CCC(C)CC(C)(C)C)CCC(C)CC(C)(C)C)CCC(C)CC(C)(C)C)CC(C)(C)C (centres undefined)
inactive: dose: 75.0 mg/kg/injection, schedule: Q01DX001 (ip), vehicle: saline with Tween-80 103 % of control | dose: 150.0 mg/kg/injection, schedule: Q01DX001 (ip), vehicle: saline with Tween-80 98 % of control | dose: 300.0 mg/kg/injection, schedule: Q01DX001 (ip), vehicle: saline with Tween-80 98 % of control

c1ccc(-c2csnn2)cc1
inactive: dose: 200.0 mg/kg/injection, schedule: Q01DX001 (ip), vehicle: carboxymethylcellulose (CMC) 91 % of control | dose: 400.0 mg/kg/injection, schedule: Q01DX001 (ip), vehicle: carboxymethylcellulose (CMC) 115 % of control

O=[As](O)(O)c1ccccc1Br
inactive: dose: 75.0 mg/kg/injection, schedule: Q01DX001 (ip), vehicle: saline 111 % of control | dose: 150.0 mg/kg/injection, schedule: Q01DX001 (ip), vehicle: saline 105 % of control | dose: 300.0 mg/kg/injection, schedule: Q01DX001 (ip), vehicle: saline 102 % of control

COC(=O)C1C2C=CC(C2=C(C)C)C1C(=O)OC (centres undefined)
inactive: dose: 50.0 mg/kg/injection, schedule: Q04DX003 (ip), vehicle: Klucel (hydroxypropylcellulose) (HPC) 100 % of control | [1] 92 % of control | [20] 98 % of control | [2] 96 % of control | [21] 94 % of control | [3] 91 % of control

Cc1cccnc1Nc1ncccc1C
inactive: [10] 100 % of control | [11] 96 % of control | [12] 103 % of control

Clc1ccccc1-c1nc2ccccc2cc1Br
inactive: [23] 97 % of control | [24] 96 % of control | [25] 92 % of control

O=S(=O)(Nc1nccs1)c1ccc(N(CCCl)CCCl)cc1
inactive: dose: 50.0 mg/kg/injection, schedule: Q01DX009 (ip), vehicle: Klucel (hydroxypropylcellulose) (HPC) 116 % of control

CC(CSc1ccccc1)NCCO (centres undefined)
inactive: [7] 97 % of control

Nc1nc(N)c(-c2ccc(Cl)c(Cl)c2)c(CO)n1
inactive: [7] 98 % of control | [8] 107 % of control | [9] 117 % of control

CN(C)c1ncnc2c1ncn2Cc1ccccc1
inactive: [4] 92 % of control | [5] 96 % of control

CCOC(=O)Cc1c(C(=O)OCC)nnn1-c1ccc([N+](=O)[O-])cc1
inactive: [14] 97 % of control | [15] 97 % of control | [16] 93 % of control
